These results are taken from patent US8710045B2, “Agents for preventing and treating disorders involving modulation of the ryanodine receptors” (The Trustees of Columbia University in the City of New York, priority 2004, dated 2014).

The structures appear in SMILES notation. Where “and” joins values, the source holds several entries; their conditions need not be identical. Identical values can stand only once.

For one data set, the target named is hERG current (Homo sapiens, UniProt Q12809). The data set can be described thus: hERG current, PatchXpress 7000A automatic parallel patch clamp in hERG-transfected HEK 293 cells (Example 6). The following applies: for Individual Data (% Inhibition): single cell; for hERG current inhibition at the highest concentration tested: highest concentration tested (10 μM). On the procedure: (§1) HEK293 cells were transfected with a plasmid containing the hERG cDNA and a neomycin resistance gene. Stable transfectants were selected by culturing the cells in the presence of G418. The selection pressure was maintained by continued culture in the presence of G418. […] Cells for use in electrophysiology were cultured in 35 mm dishes.
(§2) Onset and steady state block of hERG current was measured using a pulse pattern with fixed amplitudes (conditioning prepulse: +20 mV for 2 seconds; test pulse: −50 mV for 2 seconds) repeated at 10 second intervals, from a holding potential of −80 mV. Peak tail current was measured during the 2 second step to −50 mV. A steady state was maintained for at least 30 seconds before applying the test compound or the positive control. Peak tail current was monitored until a new steady state was achieved. Test compound concentrations were applied cumulatively in ascending order without washout between applications.
(§3) Data acquisition and analysis was performed using the suite of pCLAMP (Vre. 8.2) programs (Axon Instruments, Union City, Calif.). Steady state was defined by the limiting constant rate of change with time (linear time dependence). The steady state before and after application of the test or control compounds was used to calculate the percentage of current inhibited at each concentration. […] Nonlinear squares fits were solved with the Solver add-in for Excel 2000 (Microsoft, Redmond, Wash.).
(§4) Multiple compounds of the invention were tested for their effects on hERG currents. The compounds tested were: ARM036-Na, ARM047, ARM048, ARM050, ARM057, ARM064, ARM074, ARM075, ARM076, ARM077, ARM101, ARM102, ARM103, ARM104, ARM106, ARM107 and ARM26. […] Electrophysiological recordings were made using the PatchXpress 7000 A (Molecular Devices) automatic parallel patch clamp system. […] The duration of exposure to each test concentration was 5 minutes.
On the technique in general: Block of hERG is tested as a sign of cardiac risk.

For another data set, the target named is hERG (Homo sapiens, UniProt Q12809). Described as above. The following applies: human, HEK 293 cells stably transfected with hERG cDNA. On the procedure: as §1, §2, §3, §4
Another data set addresses T1, PKA-phosphorylated RyR2 (Homo sapiens, UniProt Q92736).
T1 construct: from tissue
The data set can be described thus: FKBP12.6 rebinding assay: FKBP12.6 binding to PKA-phosphorylated RyR2 in cardiac SR. The following applies: compound 0.5-1000 nM; Michaelis-Menten curve fitting. On the procedure:
Samples are centrifuged at 95,000 g for 10 min and the pellets are washed three times in 0.2 ml imidazole buffer. The final pellets are pooled and resuspended in imidazole buffer (final concentration≈10 μg/μl). […] Samples then are centrifuged at 100,000 g for 10 minutes and pellets washed 3 times with imidizol buffer. […] Immunoblots are developed using an anti-FKBP antibody (1:3,000 dilution). […] The intracellular solution contains (in mM): CsCl, 60; CaCl2, 1; EGTA, 11; MgCl2, 1; K2ATP, 5; HEPES, 10; aspartic acid, 50; pH 7.4 (CsOH). Under these conditions, it is expected that the measured current was carried by Ba^2+ primarily through L-type calcium channels which is referred to as ICa,L. Drugs are applied by a local solution changer and reach the cell membrane within 1 s.
The FKBP12.6 rebinding assay described above is used to determine the amount of FKBP12.6 binding to PKA-phosphorylated RyR2 at various concentrations (0.5-1000 nM) of the compounds shown. EC50 values are calculated using Michaelis-Menten curve fitting.
The EC50 values are calculated using Michaelis-Menten curve fitting.

[1] abbreviates: Individual Data (% Inhibition), single cell.
Where [2] appears, read: Individual Data (% Inhibition), 10 μM, single cell.
Setting [3] is: hERG current inhibition at the highest concentration tested, highest concentration tested (10 μM).

T1 sequence (Q92736 whole entry): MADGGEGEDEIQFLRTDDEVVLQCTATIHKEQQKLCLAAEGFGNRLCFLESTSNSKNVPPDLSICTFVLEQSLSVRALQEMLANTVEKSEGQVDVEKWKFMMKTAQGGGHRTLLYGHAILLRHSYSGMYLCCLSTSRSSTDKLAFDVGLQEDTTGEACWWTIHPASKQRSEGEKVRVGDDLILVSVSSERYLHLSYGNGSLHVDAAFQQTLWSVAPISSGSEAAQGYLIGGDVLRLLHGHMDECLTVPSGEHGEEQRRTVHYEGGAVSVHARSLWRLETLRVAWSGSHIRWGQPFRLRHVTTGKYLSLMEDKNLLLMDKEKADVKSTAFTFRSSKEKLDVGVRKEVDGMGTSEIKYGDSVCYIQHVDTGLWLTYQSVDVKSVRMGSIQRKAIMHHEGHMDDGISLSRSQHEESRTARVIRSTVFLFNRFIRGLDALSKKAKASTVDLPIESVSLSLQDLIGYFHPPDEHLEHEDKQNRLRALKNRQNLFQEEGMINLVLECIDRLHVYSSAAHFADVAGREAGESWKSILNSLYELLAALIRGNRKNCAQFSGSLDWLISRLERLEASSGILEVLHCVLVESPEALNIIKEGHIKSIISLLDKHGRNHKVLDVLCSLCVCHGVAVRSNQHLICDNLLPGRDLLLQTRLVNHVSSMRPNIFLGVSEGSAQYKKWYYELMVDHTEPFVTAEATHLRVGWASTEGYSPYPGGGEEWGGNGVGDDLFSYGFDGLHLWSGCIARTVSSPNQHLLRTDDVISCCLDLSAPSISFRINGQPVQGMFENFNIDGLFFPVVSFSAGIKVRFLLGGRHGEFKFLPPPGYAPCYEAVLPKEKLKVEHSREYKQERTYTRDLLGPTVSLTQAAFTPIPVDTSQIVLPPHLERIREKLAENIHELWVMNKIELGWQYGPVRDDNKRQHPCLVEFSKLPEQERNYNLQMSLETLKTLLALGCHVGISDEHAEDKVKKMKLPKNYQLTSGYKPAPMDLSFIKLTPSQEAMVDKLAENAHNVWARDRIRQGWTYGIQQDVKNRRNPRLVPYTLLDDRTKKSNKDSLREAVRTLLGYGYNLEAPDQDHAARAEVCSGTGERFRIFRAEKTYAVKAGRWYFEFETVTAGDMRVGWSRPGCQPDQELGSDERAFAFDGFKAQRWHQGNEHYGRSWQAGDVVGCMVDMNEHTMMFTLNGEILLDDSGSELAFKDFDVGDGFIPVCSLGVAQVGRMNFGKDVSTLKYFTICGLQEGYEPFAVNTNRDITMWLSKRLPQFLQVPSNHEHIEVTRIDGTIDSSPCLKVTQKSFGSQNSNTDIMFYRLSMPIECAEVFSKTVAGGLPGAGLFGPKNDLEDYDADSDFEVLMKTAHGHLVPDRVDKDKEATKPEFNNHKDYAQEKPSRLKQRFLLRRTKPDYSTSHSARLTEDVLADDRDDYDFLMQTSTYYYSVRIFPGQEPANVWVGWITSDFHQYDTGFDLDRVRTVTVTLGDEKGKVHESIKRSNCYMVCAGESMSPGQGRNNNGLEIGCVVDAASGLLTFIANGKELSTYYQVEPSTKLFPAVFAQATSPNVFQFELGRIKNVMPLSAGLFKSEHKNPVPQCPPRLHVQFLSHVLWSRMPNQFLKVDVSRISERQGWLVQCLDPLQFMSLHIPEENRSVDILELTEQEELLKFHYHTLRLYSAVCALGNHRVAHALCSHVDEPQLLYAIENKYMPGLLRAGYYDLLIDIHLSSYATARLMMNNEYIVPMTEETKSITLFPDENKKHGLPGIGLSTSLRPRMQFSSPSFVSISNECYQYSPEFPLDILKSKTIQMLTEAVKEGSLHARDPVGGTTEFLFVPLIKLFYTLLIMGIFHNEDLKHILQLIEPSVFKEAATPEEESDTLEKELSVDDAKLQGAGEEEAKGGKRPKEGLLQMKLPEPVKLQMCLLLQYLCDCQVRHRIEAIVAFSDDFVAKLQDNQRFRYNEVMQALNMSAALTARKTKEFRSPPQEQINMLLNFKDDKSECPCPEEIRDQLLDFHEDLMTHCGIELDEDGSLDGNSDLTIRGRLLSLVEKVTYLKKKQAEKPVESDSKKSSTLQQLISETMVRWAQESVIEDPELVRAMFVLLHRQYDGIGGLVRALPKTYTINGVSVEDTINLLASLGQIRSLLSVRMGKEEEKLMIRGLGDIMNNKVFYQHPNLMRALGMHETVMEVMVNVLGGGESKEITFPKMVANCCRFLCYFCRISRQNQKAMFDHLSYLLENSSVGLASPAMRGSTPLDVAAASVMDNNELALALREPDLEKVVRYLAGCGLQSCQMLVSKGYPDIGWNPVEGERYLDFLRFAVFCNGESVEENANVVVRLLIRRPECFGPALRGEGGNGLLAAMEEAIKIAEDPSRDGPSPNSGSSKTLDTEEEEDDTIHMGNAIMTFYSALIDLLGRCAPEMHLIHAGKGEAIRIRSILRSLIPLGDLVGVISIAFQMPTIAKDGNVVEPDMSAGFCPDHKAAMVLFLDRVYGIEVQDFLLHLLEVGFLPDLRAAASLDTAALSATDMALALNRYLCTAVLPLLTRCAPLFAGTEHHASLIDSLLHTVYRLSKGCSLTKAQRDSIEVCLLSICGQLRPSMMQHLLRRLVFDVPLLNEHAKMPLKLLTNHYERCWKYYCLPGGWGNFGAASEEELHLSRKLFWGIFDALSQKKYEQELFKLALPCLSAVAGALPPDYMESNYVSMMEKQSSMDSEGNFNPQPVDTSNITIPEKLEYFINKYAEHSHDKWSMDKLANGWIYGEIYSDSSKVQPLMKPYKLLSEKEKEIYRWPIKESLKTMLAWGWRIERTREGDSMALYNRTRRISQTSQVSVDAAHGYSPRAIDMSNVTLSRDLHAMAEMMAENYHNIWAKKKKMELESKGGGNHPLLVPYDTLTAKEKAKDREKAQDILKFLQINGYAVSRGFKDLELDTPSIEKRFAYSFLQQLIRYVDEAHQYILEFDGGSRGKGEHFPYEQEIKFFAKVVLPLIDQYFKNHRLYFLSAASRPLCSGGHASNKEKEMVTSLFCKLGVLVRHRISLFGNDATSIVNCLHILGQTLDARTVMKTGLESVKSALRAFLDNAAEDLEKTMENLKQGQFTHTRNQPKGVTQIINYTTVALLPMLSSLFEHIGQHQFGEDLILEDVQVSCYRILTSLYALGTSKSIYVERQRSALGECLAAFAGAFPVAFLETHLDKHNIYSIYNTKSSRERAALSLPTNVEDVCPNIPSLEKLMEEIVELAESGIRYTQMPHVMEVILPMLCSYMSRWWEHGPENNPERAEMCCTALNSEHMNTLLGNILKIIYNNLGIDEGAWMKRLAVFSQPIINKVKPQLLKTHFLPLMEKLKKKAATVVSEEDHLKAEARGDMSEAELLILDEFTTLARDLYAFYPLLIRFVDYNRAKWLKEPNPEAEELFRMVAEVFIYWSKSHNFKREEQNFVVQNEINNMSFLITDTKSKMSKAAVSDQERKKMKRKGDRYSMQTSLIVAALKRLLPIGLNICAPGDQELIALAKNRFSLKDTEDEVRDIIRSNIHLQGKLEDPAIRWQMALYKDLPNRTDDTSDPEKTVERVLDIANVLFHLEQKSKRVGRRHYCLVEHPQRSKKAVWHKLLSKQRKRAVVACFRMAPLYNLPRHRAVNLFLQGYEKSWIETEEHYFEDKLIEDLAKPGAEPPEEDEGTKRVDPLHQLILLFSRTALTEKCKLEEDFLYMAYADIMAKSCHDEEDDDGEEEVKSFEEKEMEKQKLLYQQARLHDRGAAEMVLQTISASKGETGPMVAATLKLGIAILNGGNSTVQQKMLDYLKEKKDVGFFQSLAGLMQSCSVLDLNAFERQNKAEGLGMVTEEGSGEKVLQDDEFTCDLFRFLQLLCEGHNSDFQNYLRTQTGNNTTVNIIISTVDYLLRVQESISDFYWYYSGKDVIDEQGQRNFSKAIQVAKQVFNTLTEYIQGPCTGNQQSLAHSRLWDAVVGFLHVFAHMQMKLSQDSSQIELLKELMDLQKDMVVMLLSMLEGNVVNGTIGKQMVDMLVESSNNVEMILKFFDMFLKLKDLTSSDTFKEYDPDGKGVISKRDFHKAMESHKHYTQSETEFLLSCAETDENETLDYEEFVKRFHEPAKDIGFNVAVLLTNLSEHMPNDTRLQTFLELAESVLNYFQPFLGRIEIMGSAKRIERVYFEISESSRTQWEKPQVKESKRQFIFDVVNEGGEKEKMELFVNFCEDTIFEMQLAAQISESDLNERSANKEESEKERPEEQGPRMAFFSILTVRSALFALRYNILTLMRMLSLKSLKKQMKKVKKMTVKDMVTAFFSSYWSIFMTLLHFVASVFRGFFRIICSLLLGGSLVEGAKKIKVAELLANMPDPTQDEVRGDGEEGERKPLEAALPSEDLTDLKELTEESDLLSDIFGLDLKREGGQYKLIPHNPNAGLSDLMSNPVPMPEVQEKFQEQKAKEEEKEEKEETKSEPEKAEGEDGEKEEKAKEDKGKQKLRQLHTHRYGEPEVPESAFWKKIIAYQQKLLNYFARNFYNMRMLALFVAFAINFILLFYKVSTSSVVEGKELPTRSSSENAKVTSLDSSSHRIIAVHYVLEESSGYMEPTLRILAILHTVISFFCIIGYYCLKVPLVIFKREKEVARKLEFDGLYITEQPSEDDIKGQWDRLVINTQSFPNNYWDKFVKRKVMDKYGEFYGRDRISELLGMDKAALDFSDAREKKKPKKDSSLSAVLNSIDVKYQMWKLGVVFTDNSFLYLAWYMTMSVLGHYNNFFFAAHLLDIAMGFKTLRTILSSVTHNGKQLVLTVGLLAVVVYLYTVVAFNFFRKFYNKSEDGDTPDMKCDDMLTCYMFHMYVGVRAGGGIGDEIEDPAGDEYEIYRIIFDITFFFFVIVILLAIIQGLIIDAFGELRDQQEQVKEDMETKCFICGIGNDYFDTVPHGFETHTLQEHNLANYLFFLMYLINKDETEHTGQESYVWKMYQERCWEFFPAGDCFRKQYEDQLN
T1 sequence (P68106 whole entry partner): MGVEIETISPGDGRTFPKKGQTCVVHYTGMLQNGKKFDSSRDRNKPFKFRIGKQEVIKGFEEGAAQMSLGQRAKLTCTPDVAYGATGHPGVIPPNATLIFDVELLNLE

Usually inhibition stands for the percentage by which the read-out fell short of the control. A low value points to little suppression. A word on the EC50: it is the concentration that produces a half-maximal response. Low readings indicate higher potency in that assay, high ones lower potency in that assay. As to `CCN(CC)C(=O)N1CCSc2ccc(OC)cc2C1` [S48], the “Individual Data (% Inhibition)” value on hERG current (0.01 μM, listed as ARM048, 0.01 µM) is 0.5% and 2.0%; at hERG current (0.1 μM, listed as ARM048, 0.1 µM) it was 2.9%; at hERG current (1 μM, listed as ARM048, 1 µM), 3.5%; on hERG current (10 μM, listed as ARM048, 10 µM), 12.8%. In addition, the figures for the inhibition at 5 min, 0.1 µM at hERG (setting [1]) and on hERG (Mean % hERG Inhibition) were 4.2% and 3.6%, respectively. Also, the inhibition at 5 min, 1 µM against hERG (setting [1]) stood at 4.7%; on hERG (Mean % hERG Inhibition), 4.1%. Besides, the inhibition at 5 min, 10 µM against hERG (setting [2]) is 15.2%; against hERG (Mean % hERG Inhibition, 10 μM), 14%; at hERG (setting [3]), < 50%. For the same molecule, at hERG (Mean % hERG Inhibition), the inhibition at 5 min, 0.01 µM is 1.3%. This molecule registered an EC50 on PKA-phosphorylated RyR2 of 100 nM.
Turning to `COC(=O)C(=O)N1CCSc2ccccc2C1` [S76], the “Individual Data (% Inhibition)” value on hERG current (0.01 μM, listed as ARM076, 0.01 µM) is 0.0% and 0.7%; on hERG current (0.1 μM, listed as ARM076, 0.1 µM), 4.0% and 0.9%; on hERG current (1 μM, listed as ARM076, 1 µM), 2.0% and 4.1%; at hERG current (10 μM, listed as ARM076, 10 µM), 12.3%. In addition, the inhibition at 5 min, 10 µM at hERG (setting [2]) is 10%; against hERG (Mean % hERG Inhibition, 10 μM), 11.2%; against hERG (setting [3]) it was < 50%. On hERG (Mean % hERG Inhibition), this molecule had an inhibition at 5 min, 0.01 µM of 0.4%. This molecule also displayed an inhibition at 5 min, 0.1 µM against hERG (Mean % hERG Inhibition) of 2.5%. The molecule further had an inhibition at 5 min, 1 µM on hERG (Mean % hERG Inhibition) of 3.1%. Further, the midpoint of the response on PKA-phosphorylated RyR2, the EC50, lay at 25 nM.
As for `O=C(N1CCCCC1)N1CCSc2ccccc2C1` [S102], the “Mean % hERG Inhibition” value on hERG current (0.01 μM) is 2.5%; on hERG current (0.1 μM), 4.2%; on hERG current (1 μM), 5.7%; on hERG current (10 μM), 47.3%. Further, the “Individual Data (% Inhibition)” value on hERG current (0.01 μM, listed as ARM102, 0.01 µM) was 0.5% and 4.4%; at hERG current (0.1 μM, listed as ARM102, 0.1 µM), 1.8% and 6.5%; at hERG current (1 μM, listed as ARM102, 1 µM), 0.8% and 10.5%; at hERG current (10 μM, listed as ARM102, 10 µM), 46.2% and 48.3%. Besides, the “hERG current inhibition at the highest concentration tested” value (shortened to “hERG current inhibition”) at hERG current is given as “less than 50%”. On PKA-phosphorylated RyR2, this molecule had a concentration for a half-maximal effect (EC50) of 135 nM.
On to `COc1ccc2c(c1)CN(C(=O)N1CCNCC1)CCS2` [S64], for which the “Individual Data (% Inhibition)” value at hERG current (0.01 μM, listed as ARM064, 0.01 µM) is −0.6% and 1.0%; on hERG current (0.1 μM, listed as ARM064, 0.1 µM), 8.1%; on hERG current (1 μM, listed as ARM064, 1 µM) it was 13.2% and 6.0%; on hERG current (10 μM, listed as ARM064, 10 µM) it was 28.5%. Besides, the inhibition at 5 min, 0.1 µM against hERG (setting [1]) stood at 9.9%; on hERG (Mean % hERG Inhibition) it was 9%. Moreover, the inhibition at 5 min, 10 µM at hERG (setting [2]) was 32%; on hERG (Mean % hERG Inhibition, 10 μM), 30.3%; on hERG (setting [3]), < 50%. The inhibition at 5 min, 0.01 µM on hERG (Mean % hERG Inhibition) came out at 0.2%. In addition, the inhibition at 5 min, 1 µM on hERG (Mean % hERG Inhibition) is 9.6%. This molecule also yielded an EC50 at PKA-phosphorylated RyR2 of 44 nM.
Regarding `COC(=O)C(=O)N1CCSc2ccc(OC)cc2C1` [S57], the “Mean % hERG Inhibition” value at hERG current (0.01 μM) came out at 0.2%; on hERG current (0.1 μM), 7.3%; at hERG current (1 μM) it was 2.7%; at hERG current (10 μM), 13.6%. Further, the “Individual Data (% Inhibition)” value was 0.3% and 0.0% on hERG current (0.01 μM, listed as ARM057, 0.01 µM); 4.1% and 10.4% at hERG current (0.1 μM, listed as ARM057, 0.1 µM); 5.3% and 0.1% at hERG current (1 μM, listed as ARM057, 1 µM); 18.3% and 8.8% at hERG current (10 μM, listed as ARM057, 10 µM). Also, on hERG current, the “hERG current inhibition” value is “less than 50%”. On PKA-phosphorylated RyR2, this molecule came in with a concentration giving a half-maximal response (EC50) of 73 nM.
As to `COc1ccc2c(c1)CN(C(=O)C(=O)O)CCS2(=O)=O` [S104], the “Mean % hERG Inhibition” value on hERG current (0.01 μM) amounted to 1.6%; on hERG current (0.1 μM), 2.5%; on hERG current (1 μM), 4.6%; at hERG current (10 μM), 7.4%. Moreover, the “Individual Data (% Inhibition)” value on hERG current (0.01 μM, listed as ARM104, 0.01 µM) was 1.2% and 1.9%; on hERG current (0.1 μM, listed as ARM104, 0.1 µM), 1.1% and 3.9%; at hERG current (1 μM, listed as ARM104, 1 µM), 3.1% and 6.0%; on hERG current (10 μM, listed as ARM104, 10 µM) it was 8.3% and 6.5%. Also, the “hERG current inhibition” value at hERG current is “less than 50%”. Moreover, the concentration giving a half-maximal response (EC50) on PKA-phosphorylated RyR2 is 111 nM.
In the case of `O=C(O)C(=O)N1CCSc2ccccc2C1` [S77], the “Mean % hERG Inhibition” value worked out at 1.3% on hERG current (0.01 μM), 7.5% at hERG current (0.1 μM), 3.6% on hERG current (1 μM) and 4.1% at hERG current (10 μM). Also, the “Individual Data (% Inhibition)” value on hERG current (0.01 μM, listed as ARM077, 0.01 µM) was 1.4% and 1.1%; on hERG current (0.1 μM, listed as ARM077, 0.1 µM), 11.4% and 3.6%; on hERG current (1 μM, listed as ARM077, 1 µM), 3.1% and 4.0%; on hERG current (10 μM, listed as ARM077, 10 µM), 0.9% and 7.2%. In addition, on hERG current, the “hERG current inhibition” value was “less than 50%”. The same molecule had a half-maximal effective concentration (EC50) on PKA-phosphorylated RyR2 of 60 nM.
For the molecule `COc1ccc2c(c1)CN(C(=O)N1CCCCC1)CCS2` [S50], the “Mean % hERG Inhibition” value was 1.8% on hERG current (0.01 μM), 3.7% at hERG current (0.1 μM), 6.1% on hERG current (1 μM) and 24.2% at hERG current (10 μM). Further, the “Individual Data (% Inhibition)” value at hERG current (0.01 μM, listed as ARM050, 0.01 µM) was 1.1% and 2.4%; at hERG current (0.1 μM, listed as ARM050, 0.1 µM), 2.7% and 4.7%; on hERG current (1 μM, listed as ARM050, 1 µM), 7.1% and 5.1%; on hERG current (10 μM, listed as ARM050, 10 µM) it was 27.0% and 21.3%. The “hERG current inhibition” value on hERG current was “less than 50%”. At PKA-phosphorylated RyR2, this molecule came in with a 50% effective concentration (EC50) of 40 nM.
